# Data taken from patent US10562912B2 (C&C Research Laboratories, priority 2013, dated 2020).
# What was measured:
# Format in all cases: cell-based
# [1] = biological target: T1, STAT3 (Homo sapiens, UniProt P40763); test: STAT3 reporter gene assay (luciferase), LNCaP stable cell line (pSTAT3-TA-luc), IL-6 stimulation
# T1 construct: plasmid pSTAT3-TA-luc), which contains a stably operating STAT3 promoter; endogenous in cells
# Summary of the method: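 LNCaP cells stably carrying pSTAT3-TA-luc, in RPMI1640 with 3% DCC-FBS, were treated with compound and then stimulated with 10 ng/mL IL-6 for 24–48 h at 37 °C. Luciferase activity was measured in lysates. A parallel plate measured viability by CellTiter-Glo, with stimulated 0.1% DMSO wells as the positive control.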
# [2] = system: AGS; test: Cell growth inhibition assay, stomach cancer cell line AGS; conditions: Homo sapiens; AGS stomach cancer cell line, 3,000 cells/well
# [3] = system: LNCaP; test: Cell growth inhibition assay, prostate cancer cell line LNCaP (medium with 10 ng/mL IL-6); conditions: Homo sapiens, medium supplemented with 10 ng/mL of IL-6, 10,000 cells/well
# T1 sequence (P40763 whole entry): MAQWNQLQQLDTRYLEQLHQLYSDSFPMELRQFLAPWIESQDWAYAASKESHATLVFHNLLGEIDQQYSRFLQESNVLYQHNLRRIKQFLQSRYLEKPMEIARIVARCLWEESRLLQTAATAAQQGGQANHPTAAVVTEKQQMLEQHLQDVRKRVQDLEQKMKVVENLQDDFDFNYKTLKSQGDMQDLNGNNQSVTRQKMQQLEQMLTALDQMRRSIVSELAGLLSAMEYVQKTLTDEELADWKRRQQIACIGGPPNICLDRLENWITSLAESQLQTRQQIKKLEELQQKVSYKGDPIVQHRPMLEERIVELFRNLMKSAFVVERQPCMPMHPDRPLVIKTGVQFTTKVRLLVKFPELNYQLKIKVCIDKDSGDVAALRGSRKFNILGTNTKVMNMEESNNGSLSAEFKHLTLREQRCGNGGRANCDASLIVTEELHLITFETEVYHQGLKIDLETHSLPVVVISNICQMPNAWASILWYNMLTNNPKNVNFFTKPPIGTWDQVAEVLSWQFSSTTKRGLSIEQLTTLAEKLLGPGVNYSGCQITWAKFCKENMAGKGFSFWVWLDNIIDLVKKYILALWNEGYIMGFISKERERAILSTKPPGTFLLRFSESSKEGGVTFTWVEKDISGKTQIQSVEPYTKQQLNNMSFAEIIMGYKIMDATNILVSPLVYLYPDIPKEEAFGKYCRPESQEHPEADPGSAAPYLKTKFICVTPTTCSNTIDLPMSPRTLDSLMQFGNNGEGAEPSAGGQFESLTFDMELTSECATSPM
IC50 [1],IC50 [2],IC50 [3],Compound
> 10 µM,22 µM,> 10 µM,"Cn1c(C(=O)Nc2cccc(-c3ccccc3C(F)(F)F)c2)cc2cc([N+](=O)[O-])ccc21 [Example 250, 1-methyl-5-nitro-N-(2′-(trifluoromethyl)-[1,1′-biphenyl]-3-yl)-1H-indole-2-carboxamide]"
5.8 µM,20.3 µM,9.1 µM,"CS(=O)(=O)Nc1ccc2cc(C(=O)Nc3cccc(C(F)(F)c4ccccn4)c3)[nH]c2c1 [Example 389, N-(3-(difluoro(pyridin-2-yl)methyl)phenyl)-6-(methylsulfonamido)-1H-indole-2-carboxamide]"
> 10 µM,1.6 µM,1.56 µM,"O=C(Nc1cccc(-c2ccccc2C(F)(F)F)c1)c1nc2cc([N+](=O)[O-])ccc2[nH]1 [Example 234, 5-nitro-N-(2′-(trifluoromethyl)-[1,1′-biphenyl]-3-yl)-1H-benzo[d]imidazole-2-carboxamide]"
> 10 µM,37 µM,> 10 µM,"O=C(Nc1cccc(-c2ccc(F)cc2C(F)(F)F)c1)c1nc2cc([N+](=O)[O-])ccc2[nH]1 [Example 235, N-(4′-fluoro-2′-(trifluoromethyl)-[1,1′-biphenyl]-3-yl)-5-nitro-1H-benzo[d]imidazole-2-carboxamide]"
> 10 µM,> 50 µM,> 10 µM,"COc1ccc(-c2cccc(NC(=O)c3cc4ccc(NS(C)(=O)=O)cc4n3C(=O)OC(C)(C)C)c2)c(F)c1 [Example 296, tert-butyl 2-((2′-fluoro-4′-methoxy-[1,1′-biphenyl]-3-yl)carbamoyl)-6-(methylsulfonamido)-1H-indole-1-carboxylate]"
6.1 µM,15.7 µM,9.6 µM,"Cn1c(C(=O)Nc2cccc(-c3ccc(F)cc3F)c2)cc2ccc(NS(C)(=O)=O)cc21 [Example 248, N-(2′,4′-difluoro-[1,1′-biphenyl]-3-yl)-1-methyl-6-(methylsulfonamido)-1H-indole-2-carboxamide]"
2.4 µM,24.2 µM,> 10 µM,"COc1cccc(S(=O)(=O)c2cccc(NC(=O)c3cc4ccc(NS(C)(=O)=O)cc4[nH]3)c2)n1 [Example 408, N-(3-((6-methoxypyridin-2-yl)sulfonyl)phenyl)-6-(methylsulfonamido)-1H-indole-2-carboxamide]"
6.8 µM,8.5 µM,> 10 µM,"CS(=O)(=O)Nc1ccc2c(C(=O)Nc3cccc(-c4ccccc4C(F)(F)F)c3)c[nH]c2c1 [Example 266, 6-(methylsulfonamido)-N-(2′-(trifluoromethyl)-[1,1′-biphenyl]-3-yl)-1H-indole-3-carboxamide]"
> 10 µM,> 50 µM,> 10 µM,"O=C(Nc1cccc(-c2ccc(F)cc2F)c1)c1nc2cc([N+](=O)[O-])ccc2[nH]1 [Example 233, N-(2′,4′-difluoro-[1,1′-biphenyl]-3-yl)-5-nitro-1H-benzo[d]imidazole-2-carboxamide]"

# Further lines, the molecule ahead of its results:
Compound,IC50 [1],IC50 [2],IC50 [3]
"CS(=O)(=O)Nc1ccc2cc(C(=O)Nc3cccc(C(F)(F)c4ccncc4)c3)[nH]c2c1 [Example 388, N-(3-(difluoro(pyridin-4-yl)methyl)phenyl)-6-(methylsulfonamido)-1H-indole-2-carboxamide]",3.8 µM,9.8 µM,8.2 µM
"COc1cncc(S(=O)(=O)c2cccc(NC(=O)c3cc4ccc(NS(C)(=O)=O)cc4[nH]3)c2)c1 [Example 407, N-(3-((5-methoxypyridin-3-yl)sulfonyl)phenyl)-6-(methylsulfonamido)-1H-indole-2-carboxamide]",5.7 µM,45.5 µM,> 10 µM
"O=C(Nc1cccc(-c2ccc(F)cc2F)c1)c1cc2ccc(NS(=O)(=O)CC(F)(F)F)cc2[nH]1 [Example 273, N-(2′,4′-difluoro-[1,1′-biphenyl]-3-yl)-6-(2,2,2-trifluoroethylsulfonamido)-1H-indole-2-carboxamide]",2.2 µM,10 µM,4.1 µM
"CN(c1ccc2cc(C(=O)Nc3cccc(-c4ccccc4C(F)(F)F)c3)n(C)c2c1)S(C)(=O)=O [Example 343, 1-methyl-6-(N-methylmethylsulfonamido)-N-(2′-(trifluoromethyl)-[1,1′-biphenyl]-3-yl)-1H-indole-2-carboxamide]",1.8 µM,5.8 µM,2.8 µM
"CS(=O)(=O)Nc1ccc2cc(C(=O)Nc3cccc(S(=O)(=O)c4cccc(CC#N)c4)c3)[nH]c2c1 [Example 412, N-(3-((3-(cyanomethyl)phenyl)sulfonyl)phenyl)-6-(methylsulfonamido)-1H-indole-2-carboxamide]",3.4 µM,22 µM,> 10 µM
"CS(=O)(=O)Nc1ccc2cc(C(=O)Nc3cccc(S(=O)(=O)c4cccnc4)c3)[nH]c2c1 [Example 404, 6-(methylsulfonamido)-N-(3-(pyridin-3-ylsulfonyl)phenyl)-1H-indole-2-carboxamide]",> 10 µM,30.3 µM,> 10 µM
"CS(=O)(=O)Nc1ccc2cc(C(=O)Nc3cccc(-c4ccc(F)cc4C(F)(F)F)c3)[nH]c2c1 [Example 277, N-(4′-fluoro-2′-(trifluoromethyl)-[1,1′-biphenyl]-3-yl)-6-(methylsulfonamido)-1H-indole-2-carboxamide]",0.38 µM,2.1 µM,1.8 µM
"CS(=O)(=O)Nc1ccc2cc(C(=O)Nc3cccc(-c4cc(C(N)=O)ccc4Cl)c3)[nH]c2c1 [Example 380, N-(5′-carbamoyl-2′-chloro-[1,1′-biphenyl]-3-yl)-6-(methylsulfonamido)-1H-indole-2-carboxamide]",> 10 µM,42.6 µM,> 10 µM
"O=C(Nc1cccc(-c2ccc(F)cc2F)c1)c1cc2ccc([N+](=O)[O-])cc2[nH]1 [Example 225, N-(2′,4′-difluoro-[1,1′-biphenyl]-3-yl)-6-nitro-1H-indole-2-carboxamide]",> 10 µM,> 50 µM,> 10 µM
"CS(=O)(=O)Nc1ccc2cc(C(=O)Nc3cccc(-c4ccc(S(N)(=O)=O)cc4C(F)(F)F)c3)[nH]c2c1 [Example 283, 6-(methylsulfonamido)-N-(4′-sulfamoyl-2′-(trifluoromethyl)-[1,1′-biphenyl]-3-yl)-1H-indole-2-carboxamide]",7.4 µM,18.2 µM,> 10 µM
"O=C(Nc1cccc(-c2ccccc2C(F)(F)F)c1)c1cc2ccc([N+](=O)[O-])cc2[nH]1 [Example 226, 6-nitro-N-(2′-(trifluoromethyl)-[1,1′-biphenyl]-3-yl)-1H-indole-2-carboxamide]",6.3 µM,6.9 µM,> 10 µM
"COC(=O)c1ccc(Cl)c(-c2cccc(NC(=O)c3cc4ccc(NS(C)(=O)=O)cc4[nH]3)c2)c1 [Example 299, methyl 6-chloro-3′-(6-(methylsulfonamido)-1H-indole-2-carboxamido)-[1,1′-biphenyl]-3-carboxylate]",3.1 µM,43.1 µM,> 10 µM
"CS(=O)(=O)Nc1ccc2cc(C(=O)Nc3cccc(S(=O)(=O)c4cccc(Br)c4)c3)[nH]c2c1 [Example 414, N-(3-((3-bromophenyl)sulfonyl)phenyl)-6-(methylsulfonamido)-1H-indole-2-carboxamide]",1.7 µM,14.4 µM,9.6 µM
